Test results as given in ChEMBL document CHEMBL1201862, “PubChem BioAssay data set” (2004).
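In this assay, cells in 96-well plates receive the compound at five concentrations for 48 hours. Endpoints are linearly interpolated between the surrounding concentrations. Abbreviation: GI50, concentration required for 50% inhibition of growth.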 The source made the active and inactive calls. No stated cut-off is given here; in the data, active = GI50 up to about 1.1 µM and inactive = higher.

Legend:
Experiment in all cases: inhibition of tumour cell growth, NCI panel, 48 h
NCI-H226 = test system: NCI-H226
OVCAR-8 = test system: OVCAR-8
HCC 2998 = test system: HCC 2998
UO-31 = test system: UO-31
HOP-62 = test system: HOP-62
RPMI-8226 = test system: RPMI-8226
786-0 = test system: 786-0
A549 = test system: A549
M14 = test system: M14
COLO 205 = test system: COLO 205
UACC-62 = test system: UACC-62
RXF 393 = test system: RXF 393
SK-MEL-28 = test system: SK-MEL-28
SF-268 = test system: SF-268
OVCAR-4 = test system: OVCAR-4
SF-295 = test system: SF-295
EKVX = test system: EKVX
M19-MEL = test system: M19-MEL
LXFL 529 = test system: LXFL 529
CAKI-1 = test system: CAKI-1
IGROV-1 = test system: IGROV-1
SNB-78 = test system: SNB-78
UACC-257 = test system: UACC-257
SK-MEL-5 = test system: SK-MEL-5
HOP-18 = test system: HOP-18
DMS-273 = test system: DMS-273
SW-620 = test system: SW-620
KM-20L2 = test system: KM-20L2
CCRF-CEM = test system: CCRF-CEM
ACHN = test system: ACHN
HCT-116 = test system: HCT-116
HCT-15 = test system: HCT-15
XF498 = test system: XF498
NCI-H23 = test system: NCI-H23
A498 = test system: A498
SK-MEL-2 = test system: SK-MEL-2
SN12C = test system: SN12C
SNB-19 = test system: SNB-19
LOX IMVI = test system: LOX IMVI
KM12 = test system: KM12
SK-OV-3 = test system: SK-OV-3
HL-60 = test system: HL-60
Malme-3M = test system: Malme-3M
DLD-1 = test system: DLD-1
NCI-H460 = test system: NCI-H460
U-251 = test system: U-251
NCI-H522 = test system: NCI-H522
SF-539 = test system: SF-539
SR = test system: SR
SNB-75 = test system: SNB-75
DMS-114 = test system: DMS-114
K562 = test system: K562
MOLT-4 = test system: MOLT-4
HOP-92 = test system: HOP-92
OVCAR-5 = test system: OVCAR-5
OVCAR-3 = test system: OVCAR-3
HT-29 = test system: HT-29

With `Cn1c2c(cc(-c3ccccc3)c1=O)COc1ccccc1-2` the GI50 (NCI-H226) was 32.5 µM (inactive), the GI50 (OVCAR-8) was 34 µM (inactive) and the GI50 (HCC 2998) was 24.8 µM (inactive). The GI50 (UO-31) was 27.5 µM (inactive), the GI50 (HOP-62) was 42.3 µM (inactive) and the GI50 (RPMI-8226) was 20.2 µM (inactive). For the same compound, the GI50 (786-0) was 39.3 µM (inactive), the GI50 (A549) was 33.3 µM (inactive) and the GI50 (M14) was 31.6 µM (inactive). The GI50 (COLO 205) was 29 µM (inactive), the GI50 (UACC-62) was 14.7 µM (inactive) and the GI50 (RXF 393) was 36.1 µM (inactive). The GI50 (SK-MEL-28) was 24.1 µM (inactive), the GI50 (SF-268) was 28.6 µM (inactive) and the GI50 (OVCAR-4) was 37.8 µM (inactive). The GI50 (SF-295) was 25.8 µM (inactive), the GI50 (EKVX) was 9.04 µM (inactive) and the GI50 (M19-MEL) was 25.6 µM (inactive). The GI50 (LXFL 529) was 31.4 µM (inactive), the GI50 (CAKI-1) was 37.5 µM (inactive) and the GI50 (IGROV-1) was 35.5 µM (inactive). The GI50 (SNB-78) was 33.7 µM (inactive), the GI50 (UACC-257) was 36.9 µM (inactive) and the GI50 (SK-MEL-5) was 17.5 µM (inactive). For the same compound, the GI50 (HOP-18) was > 100 µM (inactive), the GI50 (DMS-273) was 19.5 µM (inactive) and the GI50 (SW-620) was 45.9 µM (inactive). For the same compound, the GI50 (KM-20L2) was 25.1 µM (inactive), the GI50 (CCRF-CEM) was 30.5 µM (inactive) and the GI50 (ACHN) was 24 µM (inactive). The GI50 (HCT-116) was 16.9 µM (inactive), the GI50 (HCT-15) was 32.1 µM and the GI50 (XF498) was 8.04 µM (inactive). The GI50 (NCI-H23) was 26.9 µM (inactive), the GI50 (A498) was 40.6 µM (inactive) and the GI50 (SK-MEL-2) was 14 µM (inactive). For the same compound, the GI50 (SN12C) was 35 µM (inactive), the GI50 (SNB-19) was 40.9 µM (inactive) and the GI50 (LOX IMVI) was 15.2 µM (inactive). The GI50 (KM12) was 13 µM (inactive), the GI50 (SK-OV-3) was 37.8 µM (inactive) and the GI50 (HL-60) was 29.8 µM (inactive). For the same compound, the GI50 (Malme-3M) was 20.3 µM (inactive), the GI50 (DLD-1) was 36.6 µM (inactive) and the GI50 (NCI-H460) was 20.3 µM (inactive). For the same compound, the GI50 (U-251) was 41.6 µM (inactive), the GI50 (NCI-H522) was 17.9 µM (inactive) and the GI50 (SF-539) was 49.1 µM (inactive). The GI50 (SR) was 39.1 µM (inactive), the GI50 (SNB-75) was 23.4 µM (inactive) and the GI50 (DMS-114) was 15.4 µM (inactive). The GI50 (K562) was 23.9 µM (inactive), the GI50 (MOLT-4) was 23.1 µM (inactive) and the GI50 (HOP-92) was 28.8 µM (inactive). The GI50 (OVCAR-5) was 14.5 µM (inactive), the GI50 (OVCAR-3) was 26.4 µM (inactive) and the GI50 (HT-29) was 19.9 µM (inactive).
